# Assays:
# [1] = tested on: rat abdominal aortic rings; assay: Vascular tension in isolated aortic rings; parameters: species or system Sprague-Dawley rats; details: KCl 20 mM; above resting tension of 1.5 g
# Procedure: Experiments were conducted to determine the vasoconstrictive properties of HIF. The protocol for these experiments is described in greater detail in Example V. In general, Sprague-Dawley rats were anesthetized and the abdominal aorta surgically removed. 2 mm vascular rings were attached to a force transducer and bathed in buffer, and tension adjusted to 1.5 g. Tissue viability was documented and vasoconstrictive responses calibrated using known vasoconstrictors such as potassium chloride and norepinephrine. Blood vessels thus prepared were then tested with varing doses of HIF.
# Sprague-Dawley rats weighing 250-350 grams were anesthetized with pentobarbital intraperitoneally, the abdominal aorta rapidly excised and dissected free of all loose connective tissue in cold Krebs-Henseleit bicarbonate buffer of the following composition, mM: NaCl, 118.3; KCl, 4.7; MgSo₄, 1.2; KH₂PO₄, 1.2; CaCl₂, 2.5; NaHCO₃, 25.0; Na-EDTA, 0.016; and glucose, 11.1. 2-3 mm (length) vascular rings were excised, attached to a force transducer and bathed in a water jacketed (37°C) organ chamber containing 5 ml of the above buffer gassed with 95% O₂ and 5% CO₂. […] force measurements were obtained with a Grass force displacement transducer attached to a Grass 79D polygraph DC amplifier, and recorded with a two-channel Kipp Zonen recorder. […]
# cardiac myocytes = assay: Myocyte contractility (amplitude of systolic motion, beating frequency), phase contrast video motion detector; type: cell-based, rat
# Procedure: In general, the amplitude of contraction (i.e., degree of positive inotropy) was measured in single, beating myocytes as the amplitude of systolic motion (ASM) using a phase contrast video motion detector system. The same detector system was used to measure toxicity, which is evidenced as a decrease in ASM, a change in the position of maximal relaxation (MR), and an increase in beating frequency.
# (§1) Myocardial cells were isolated from ventrical fragments of the hearts of 1-day old Sprague-Dawley rats by serial trypsinizations in a Ca²⁺ and Mg²⁺-free Hanks Buffered Salt Solution (HBSS) as previously described (Yagev, S., et al., In Vitro, 20:893-898 (1984)). Trypsinized cells were decanted into HamF10 medium containing 20% serum and antibiotics and centrifuged at 1000 r.p.m. for 10 minutes. The cell pellet was resuspended in HamF10 medium containing fetal calf serum and 10% horse serum with 0.1% penicillin-streptomycin, and diluted to a concentration of 5 x 10⁵ cells/ml. For measurements of cytosolic free calcium concentration ([Ca²⁺]i), the cells were plated on rectangular glass coverslips (13 x 30 mm) and for measurements of cell contractility, plated on circular glass coverslips (12 mm), and both types of coverslips placed inside petri dishes. For measurements of ⁸⁶Rb⁺ uptake cells were plated in petri dishes (1 - 1.5 x 10⁶ cells/35mm dish). All cultures were incubated in humidified 5% CO₂, 95% air at 37°C.
# Contractility, determined as amplitude of systolic cell motion (ASM), and beating frequency were measured in individual cells using a phase contrast microscope video motion detector system according to the method of Barry, et al. (Barry, W.H., et al., Circ. Res., 56:231-241 (1985)). A glass coverslip with attached cultured myocytes was placed in a chamber provided with inlet and exit ports for medium perfusion. The chamber was enclosed in a Lucite box at 37°C and placed on the stage of an inverted phase contrast microscope. The cells were covered with 1 ml medium containing HIF or ouabain. During continuous perfusion, medium bathing a cell in the center of a coverslip exchanged with a time constant of 15 seconds at a flow rate of 0.96 ml/minutes. Image was magnified using a 40x objective, and motion monitored by a low-light-level TV camera attached to the microscope and calibrated with 262 raster lines. […] The analog voltage output from the motion detector is filtered at low pass filter and calibrated to indicate actual um of motion, and the derivative is obtained electronically and recorded as velocity of motion in um/sec. […] The changes in contractility induced by ouabain or HIF were calculated in comparison with the contractility of the same cells before addition of ouabain or HIF.
# [2] = tested on: neonatal rat cardiac myocytes; assay: ⁸⁶Rb⁺ influx (Na⁺ pump activity) in cultured cardiac cells; type: cell-based; details: ouabain 5 mM, 20 min preincubation
# Procedure: Na⁺ pump activity was estimated in the cultured cardiac cells as the difference in ⁸⁶Rb⁺ uptake observed in the absence and presence of 5 mM ouabain, following the method of Panet et al (Panet, R., et al., J. Memb. Biol., 70:165-169 (1982)). To insure saturation binding, myocytes were preincubated for 20 minutes with HIF (2 unit/ml) or ouabain (5 mM) or both prior to addition of ⁸⁶Rb⁺ to run the 10 minute flux. Myocyte monolayers were washed with HEPES buffer solution (final concentrations, mM: NaCl 150, RbCl 5, HEPES-Tris 10 (pH7.0) , CaCl₂ 1, MgCl₂ 5, glucose 10), and the uptake initiated by covering over with 0.5 ml of same solution pre-warmed to 37°C and containing 2 uCi ⁸⁶RbCl. […] The cells were lysed with 0.6 ml of 0.1 N NaOH containing 0.1% (w/v) sodium dodecylsulfate, and the radioactivity counted in Instagel (Packard) scintillation medium.
# The concentration dependence of HIF inhibition was determined by preincubating cells with HIF at 0.5 units/ml, 0.8 units/ml, 1 unit/ml, 2 units/ml and 4 units/ml concentration for 20 min. ⁸⁶RbCl (2 uCi/well) was then added to run the flux.
# [3] = tested on: cultured cardiac myocytes; assay: Cytosolic free Ca²⁺ measured with fura-2 in cultured cardiac myocytes; type: cell-based, rat; details: ouabain 10^-6 M, steady state, control 138±3
# Procedure: as §1, with “For measurements of ⁸⁶Rb⁺ uptake cells were plated in petri dishes (1 - 1.5 x 10⁶ cells/35mm dish). All cultures were incubated in humidified 5% CO₂, 95% air at 37°C.” left out
# Changes in [Ca²⁺] i were detected using the fluorescent probe, fura-2 (Grynkiewicz, G., et al., J. Biol. Chem., 260:3440-3450 (1985)). […] The fluorescence was continuously recorded using a PTI DeltaScan 1 spectrofluorometer. […] Values of [Ca²⁺]i were calculated from the ratio R = F₃₄₀/F₃₈₀ [formula] […] Rmax and Rmin were determined in separate experiments using digitonin to equilibrate [Ca²⁺]i with ambient [Ca²⁺] […] Background autofluorescence was measured in unloaded cells and substracted from all measurements.
SMILES,"Change in Tension in Rat Aorta, % increase [1] [%]","activation at 0.5 µM (cardiac myocytes; Rattus norvegicus, ouabain 5x10^-7 M, read-out: ASM, % increase) [%]","inhibition at 0.5 µM (cardiac myocytes; Rattus norvegicus, ouabain 5x10^-7 M, read-out: Rate, % decrease) [%]","toxicity on contracting myocytes (decrease in ASM, elevation in position of MR, increase in beating frequency) (cardiac myocytes; ouabain 1 uM)","ASM, % increase (cardiac myocytes; ouabain 5x10^-7 M, listed as Ou) [%]","inhibition at 5000 µM ([2]; Rattus norvegicus, read-out: decrease of total ⁸⁶Rb⁺ uptake) [%]","total ⁸⁶Rb⁺ uptake ([2]; 10 min flux, control 810 nmol/mg protein) [nmol/mg]",[Ca²⁺]i [3] [nM],[Ca²⁺]i ([3]; listed as Ouabain) [nM]
"[Cl-].[K+] [KCl, potassium chloride]",20,–,–,–,–,–,–,–,–
C[C@@H]1O[C@@H](O[C@H]2C[C@@H](O)[C@]3(CO)[C@H]4[C@H](O)C[C@]5(C)[C@@H](C6=CC(=O)OC6)CC[C@]5(O)[C@@H]4CC[C@]3(O)C2)[C@H](O)[C@H](O)[C@H]1O [ouabain],–,41,23 ± 2,toxic range,41±3,74,210,287 ± 15,287 ± 15

# From patent EP0433074B1, “Method for treating cardiac malfunction” (THE GENERAL HOSPITAL CORPORATION, priority 1989, dated 1991)
